From patent publication US20100080762A1, “SKIN CARE COMPOSITION” (priority 2006, published 2010)

Assays:
Assay type in all cases: cell-based, human
Interleukin (IL)6 [1] = test: HaCaT keratinocytes, base line production of IL6 (no TNFα), Experiment 2
Procedure: (§1) In a second assay, the human keratinocyte cell line HaCat was stimulated with the inflammatory cytokine TNFα and the release of Interleukin (IL)6 into the medium was analysed with a commercially available “Enzyme Linked Immunosorbent Assay” (ELISA).
HaCaT cells were cultivated under the conditions explained in detail in Wertz et al., Free Radical Biology & Medicine, Vol. 37, No. 5, pp. 654-670, 2004. Cells were pre-cultivated in medium containing with lycopene at a concentration of 1 μmol/L for 48 h to give the cells sufficient time to accumulate lycopene. Lycopene was solubilized in a stock solution with Tetrahydrofuran (THF) and diluted into the medium such that the end concentration was 0.1% THF. […] Cells were harvested by trypsinisation and counted according to standard procedures. Il6 levels in the medium were standardized to the number of cells in the wells and expressed as pg/10^6 cells
This experiment was performed to investigate whether two other carotenoid representatives, beta-carotene and beta-cryptoxanthin, are able to reduce the general base line production of inflammatory mediators of normal skin

HBD2 = test: Cytokine mix-induced keratinocyte inflammation model, HBD2 mRNA expression (real-time PCR); conditions: NHEK; for HBD2, % compared to the control treated only with cytokine mix: 2 h pre-treatment, cytokine mix 24 h
Procedure: (§2) Two assays were performed to investigate the effect of selected compounds of this invention in an inflammation model with human skin keratinocytes.
(§3) In this model, the association of 3 cytokines that induce a strong synergistic effect on keratinocytes in culture (Boniface K, Diveu C, Morel F, Pedretti N, Froger J, Ravon E, Garcia M, Venereau E, Preisser L, Guignouard E, Guillet G, Dagregorio G, Pene J, Moles J P, Yssel H, Chevalier S, Bernard F X, Gascan H, Lecron J C. Oncostatin M secreted by skin infiltrating T lymphocytes is a potent keratinocyte activator involved in skin inflammation. J Immunol. 2007 Apr. 1;178(7):4615-22), is used to measure the expression of selected markers for keratinocyte inflammation: the antibacterial/chemoattractive markers S100A7/psoriasin and defensin HBD2/4
(§4) Normal human epidermal keratinocytes (NHEK pool K015, 3e passage) were cultured under the following conditions: • Culture: 37° C., 5% CO2 • Culture medium: SFM (Invitrogen 17005075) • Epidermal Growth Factor 0.25 ng/ml and pituitary extract 25 μg/ml • (EGF, EP, Invitrogen 17005075) • Gentamycine 25 μg/ml (Sigma G1397) • Assay medium: SFM without EGF and pituitary extract (Invitrogen 17005075)
(§5) Keratinocytes were pre-cultivated in culture medium. At confluence, the culture medium was changed into assay medium (SFM without EGF and pituitary extract) containing or not (control) the test compounds and the cells were pre-treated for 2 h at 37° C. and 5% CO2. At the end of the pre-treatment, the cytokine mix consisting of oncostatin M (OSM), IL-17 and […], was added to the cultures for 24 h at 37° C. and 5% CO2 (a non-treated and non-stimulated control was run in parallel). At the end of the experiment, the cells were washed in PBS buffer (Invitrogen 14190094) and immediately frozen at −80° C. with 300 μl per well of Tri-reagent (Sigma T9424).
(§6) Primers couples allowing the amplification of a specific PCR product from each selected marker were used. Liver glyceraldehyde 3-phosphate dehydrogenase (G3PDH) was used as a reference marker in this experiment.
Defensin beta 4 (DEFB4), beta-defensin 2 (hBD2, DEFB2);
skin-antimicrobial peptide 1 (SAP1) HBD2 NM_004942
(§7) RNA Extraction and Reverse Transcription • Extraction of total RNA by Tri-Reagent according to the protocol recommended by the supplier. • Elimination of contaminant DNA by DNAse treatment using the “DNA-free” system (Ambion). • Reverse-transcription of mRNA in the presence of oligo(dT) and Superscript II reversetranscriptase (Invitrogen).
(§8) The PCR reactions (Polymerase Chain Reactions) were performed using the LightCycler® system (Roche Molecular Systems Inc.) according to the protocol recommended by the supplier. This system allows rapid and powerful PCR reactions.
(§9) The reaction mix (10 μl final) was added as follows: • 2.5 μl of cDNA diluted at 1/10e. • primers forward and reverse • reagent mix (Roche) containing tag DNA polymerase, SYBR Green I and MgCl2.
(§10) The incorporation of fluorescence in amplified DNA was measured continuously during the PCR cycles. […] The RE value was expressed in arbitrary units (AU) according to the formula:
(§11) (½ number of cycles)×10^6

S100A7/psoriasin = test: Cytokine mix-induced keratinocyte inflammation model, S100A7 mRNA expression (real-time PCR); conditions: NHEK; for S100A7, % compared to the control treated only with cytokine mix: 2 h pre-treatment, cytokine mix 24 h
Procedure: as §2, §3, §4, §5, §6, §7, §8, §9, §10, §11

Interleukin (IL)6 [2] = test: TNFα-stimulated HaCaT keratinocytes, release of IL6 into the medium (ELISA), Experiment 1
Procedure: as §1
HaCaT cells were cultivated under the conditions explained in detail in Wertz et al., Free Radical Biology & Medicine, Vol. 37, No. 5, pp. 654-670, 2004. Cells were pre-cultivated in medium containing with lycopene at a concentration of 1 μmol/L for 48 h to give the cells sufficient time to accumulate lycopene. Lycopene was solubilized in a stock solution with Tetrahydrofuran (THF) and diluted into the medium such that the end concentration was 0.1% THF. After the pre-incubation period, cells were stimulated with […] TNFα for 5 h, after which the medium was collected and frozen. Cells were harvested by trypsinisation and counted according to standard procedures. Il6 levels in the medium were standardized to the number of cells in the wells and expressed as pg/10^6 cells

Compound	Effect on base line IL6 secretion (in words) (Interleukin (IL)6 [1])	IL6 pg/10^6 cells ± SD (Interleukin (IL)6 [1]; 0.1 μmol/L) [pg/10^6 cells]	IL6 pg/10^6 cells ± SD (Interleukin (IL)6 [1]; 0.25 μmol/L) [pg/10^6 cells]	IL6 pg/10^6 cells ± SD (Interleukin (IL)6 [1]; 1.0 μmol/L) [pg/10^6 cells]	IL6 pg/10^6 cells ± SD (Interleukin (IL)6 [1]; 3.0 μmol/L) [pg/10^6 cells]	IL6 pg/10^6 cells ± SD (Interleukin (IL)6 [1]; 0.5 μmol/L) [pg/10^6 cells]	HBD2, % compared to the control treated only with cytokine mix (HBD2; 0.2 μmol/L) [%]	HBD2, % compared to the control treated only with cytokine mix (HBD2; 1.0 μmol/L) [%]	HBD2, % compared to the control treated only with cytokine mix (HBD2; 5.0 μmol/L) [%]	S100A7, % compared to the control treated only with cytokine mix (S100A7/psoriasin; 0.2 μmol/L) [%]	S100A7, % compared to the control treated only with cytokine mix (S100A7/psoriasin; 1.0 μmol/L) [%]	S100A7, % compared to the control treated only with cytokine mix (S100A7/psoriasin; 5.0 μmol/L) [%]	Effect on reaction of keratinocytes to pro-inflammatory stimulus (in words) (Interleukin (IL)6 [2])	Effect on cytokine mix induction of HBD2/4 mRNA (in words) (HBD2)	Effect on cytokine mix induction of S100A7 mRNA (in words) (S100A7/psoriasin)
CC1=C(/C=C/C(C)=C/C=C/C(C)=C/C=C/C=C(C)/C=C/C=C(C)/C=C/C2=C(C)CCCC2(C)C)C(C)(C)CCC1 [Beta-carotene, beta-carotene]	can reduce the base line level	315.86	225.15	241.8	291.85										
CC1=C(/C=C/C(C)=C/C=C/C(C)=C/C=C/C=C(C)/C=C/C=C(C)/C=C/C2=C(C)C[C@@H](O)CC2(C)C)C(C)(C)CCC1 [Beta-cryptoxanthin, beta-cryptoxanthin]	moderate effect	264.76	268.46			286.77									
OCCc1ccc(O)c(O)c1 [Hydroxytyrosol, hydroxytyrosol]							50	51	40	60	57	49			
CC(C)=CCC/C(C)=C/C=C/C(C)=C/C=C/C(C)=C/C=C/C=C(C)/C=C/C=C(C)/C=C/C=C(\C)CCC=C(C)C [Lycopene, lycopene]													significantly reduce		
Oc1ccc(C=Cc2cc(O)cc(O)c2)cc1 [Resveratrol, resveratrol]							61	51	47	68	66	53		strongly inhibited	strongly inhibited
(−)-Epigallocatechin gallate [EGCG]							59	43	33	66	20	27		strongly inhibited	strongly inhibited
